Experimental data from patent publication US9371265B2, “Compositions and methods related to inhibitors of JAK kinase” (EP PHARMA, INC., priority 2012, dated 2016).

Assays:
[1] = biological target: FGFR2 (Homo sapiens, UniProt P21802); experiment: Kinase panel: FGFR2; format: biochemical; details: 10 μM EP009
Description: (§1) Achieving JAK3 selectivity remains a significant challenge in the development of new small molecules for the treatment of cancer and immune-derived diseases. As such, the inventors employed cell-based screening assays of small-molecule libraries based upon the chemical scaffold of the established JAK3 inhibitor NC1153 (Stepkowski et al., J Immunol. (2005), 175(7):4236-4246) EP009 (FIG. 2A) was selected as a lead compound due to improved intrinsic stability (>95% purity in various solvents at 37° C. for 24 hours; FIG. 3) and high-degree of JAK3 selectivity. To test JAK3 versus JAK2 specificity of EP009, the IL-2/JAK3-dependent Kit225, and IL-3/JAK2-dependent BaF/3 cell lines were used. Kit225 and BaF/3 cells growing in the presence of IL-2 or IL-3, respectively, were treated with ascending concentrations of EP009 for 12 hours and cellular JAK3 and JAK2 tyrosine phosphorylation levels detected by Western blot analysis (FIGS. 2B and 2C). Following densitometric analysis, EP009 was determined to dose-dependently reduce IL-2-mediated JAK3 tyrosine phosphorylation with a cellular 50% inhibitory concentration (IC50) between 10 and 20 μM (FIG. 2B). […] To globally evaluate specificity, the inhibitory activity of EP009 was measured against a panel of protein kinases distributed throughout the kinome using the scanEDGE profiling service (KINOMEscan). […]

[2] = biological target: PIM2 (Homo sapiens, UniProt Q9P1W9); experiment: Kinase panel: PIM2; format: biochemical; details: 10 μM EP009
Description: as §1

[3] = biological target: PLK4 (Homo sapiens, UniProt O00444); experiment: Kinase panel: PLK4; format: biochemical; details: 10 μM EP009
Description: as §1

[4] = biological target: JNK1 (Homo sapiens, UniProt P45983); experiment: Kinase panel: JNK1; format: biochemical; details: 10 μM EP009
Description: as §1

[5] = biological target: IKK-alpha (Homo sapiens, UniProt O15111); experiment: Kinase panel: IKK-alpha; format: biochemical; details: 10 μM EP009
Description: as §1

[6] = system: p70 S6 kinase; experiment: Phospho-p70 S6 kinase in SU-DHL-1 cells (Luminex multiplex); format: cell-based, human; details: 24 hours
Description: FIGS. 8A-8F. Effect of EP009 on ALCL cells is mediated through selective activation of ERK1/2 and JNK1/2 stress signaling pathways, and inhibition of p70 S6 kinase growth signaling pathways. SU-DHL-1 cells were treated with vehicle (PBS) or increasing amounts of EP009 (0-50 μM) for 24 hours. Cells were then lysed, clarified, and subjected to Luminex multiplex analysis to detect phosphorylated (A) ERK1/2, (B) JNK1/2, (C) p70 S6 kinase, (D) IκBα, (E) CREB, and (F) p38. Values represent mean fluorescence intensity (MFI) normalized to corresponding GAPDH MFI, while error bars represent the standard deviation (n=2). Representative data from two independent experiments are shown. Statistical significance was determined using Student's t-test. (*, p<0.05).
The MILLIPLEX MAP 8-plex Multi-Pathway Signaling Phosphoprotein kit (Millipore) was used to detect phosphorylated ERK1/2 (Thr185/Tyr187), STAT3 (Ser727), JNK1/2 (Thr183/Tyr185), p70 S6 kinase (Thr412), IκBα (Ser32), STAT5A/B (Tyr694/699), CREB (Ser133), and p38 (Thr180/Tyr182). The MILLIPLEX MAP 5-plex STAT Phosphoprotein kit (Millipore) was used to detect phosphorylated STAT1 (Tyr701), STAT2 (Tyr690), STAT3 (Tyr705), STAT5A/B (Tyr694/699), and STAT6 (Tyr641). The MILLIPLEX MAP Human Apoptosis 3-plex kit (Millipore) was used to detect cleaved PARP, cleaved Caspase 3, and total GAPDH for protein normalization.

[7] = biological target: EGFR (Homo sapiens, UniProt P00533); experiment: Kinase panel: EGFR; format: biochemical; details: 10 μM EP009
Description: as §1

[8] = biological target: SRPK3 (Homo sapiens, UniProt Q9UPE1); experiment: Kinase panel: SRPK3; format: biochemical; details: 10 μM EP009
Description: as §1

[9] = biological target: CDK7 (Homo sapiens, UniProt P50613); experiment: Kinase panel: CDK7; format: biochemical; details: 10 μM EP009
Description: as §1

Sequence of PLK4 (O00444 whole entry): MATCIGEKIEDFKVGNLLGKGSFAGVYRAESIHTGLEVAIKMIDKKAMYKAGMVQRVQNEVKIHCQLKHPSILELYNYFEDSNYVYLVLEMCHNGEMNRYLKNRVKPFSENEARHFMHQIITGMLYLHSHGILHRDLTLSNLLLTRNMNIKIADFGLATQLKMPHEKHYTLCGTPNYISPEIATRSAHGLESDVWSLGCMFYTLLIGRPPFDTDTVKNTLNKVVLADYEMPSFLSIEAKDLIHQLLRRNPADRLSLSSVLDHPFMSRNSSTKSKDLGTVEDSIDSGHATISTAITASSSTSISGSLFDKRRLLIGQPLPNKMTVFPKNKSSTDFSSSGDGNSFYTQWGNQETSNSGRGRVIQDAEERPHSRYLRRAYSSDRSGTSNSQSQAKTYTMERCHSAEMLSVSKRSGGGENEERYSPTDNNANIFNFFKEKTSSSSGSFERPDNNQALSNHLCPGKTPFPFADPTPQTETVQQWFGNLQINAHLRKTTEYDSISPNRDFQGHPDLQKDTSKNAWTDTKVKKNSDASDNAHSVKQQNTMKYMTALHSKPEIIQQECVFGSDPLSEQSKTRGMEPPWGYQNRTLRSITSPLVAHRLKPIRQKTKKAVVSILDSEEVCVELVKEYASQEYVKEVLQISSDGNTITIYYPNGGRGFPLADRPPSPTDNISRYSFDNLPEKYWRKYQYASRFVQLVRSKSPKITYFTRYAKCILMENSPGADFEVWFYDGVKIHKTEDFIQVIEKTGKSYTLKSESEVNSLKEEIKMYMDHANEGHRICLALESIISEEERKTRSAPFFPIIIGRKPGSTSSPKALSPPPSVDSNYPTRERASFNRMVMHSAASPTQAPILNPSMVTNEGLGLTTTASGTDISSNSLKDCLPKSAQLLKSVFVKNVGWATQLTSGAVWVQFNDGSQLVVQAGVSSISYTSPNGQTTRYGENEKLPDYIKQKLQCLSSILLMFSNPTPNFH
Sequence of PIM2 (Q9P1W9 whole entry): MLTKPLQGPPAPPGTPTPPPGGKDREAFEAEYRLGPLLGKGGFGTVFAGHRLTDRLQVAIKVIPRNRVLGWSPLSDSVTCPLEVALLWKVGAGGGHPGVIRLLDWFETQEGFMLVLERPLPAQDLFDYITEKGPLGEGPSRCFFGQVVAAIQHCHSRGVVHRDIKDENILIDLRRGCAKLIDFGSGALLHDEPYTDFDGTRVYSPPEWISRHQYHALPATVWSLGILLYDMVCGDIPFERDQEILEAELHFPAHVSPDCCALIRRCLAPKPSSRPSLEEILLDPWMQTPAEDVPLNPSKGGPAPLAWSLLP
Sequence of IKK-alpha (O15111 whole entry): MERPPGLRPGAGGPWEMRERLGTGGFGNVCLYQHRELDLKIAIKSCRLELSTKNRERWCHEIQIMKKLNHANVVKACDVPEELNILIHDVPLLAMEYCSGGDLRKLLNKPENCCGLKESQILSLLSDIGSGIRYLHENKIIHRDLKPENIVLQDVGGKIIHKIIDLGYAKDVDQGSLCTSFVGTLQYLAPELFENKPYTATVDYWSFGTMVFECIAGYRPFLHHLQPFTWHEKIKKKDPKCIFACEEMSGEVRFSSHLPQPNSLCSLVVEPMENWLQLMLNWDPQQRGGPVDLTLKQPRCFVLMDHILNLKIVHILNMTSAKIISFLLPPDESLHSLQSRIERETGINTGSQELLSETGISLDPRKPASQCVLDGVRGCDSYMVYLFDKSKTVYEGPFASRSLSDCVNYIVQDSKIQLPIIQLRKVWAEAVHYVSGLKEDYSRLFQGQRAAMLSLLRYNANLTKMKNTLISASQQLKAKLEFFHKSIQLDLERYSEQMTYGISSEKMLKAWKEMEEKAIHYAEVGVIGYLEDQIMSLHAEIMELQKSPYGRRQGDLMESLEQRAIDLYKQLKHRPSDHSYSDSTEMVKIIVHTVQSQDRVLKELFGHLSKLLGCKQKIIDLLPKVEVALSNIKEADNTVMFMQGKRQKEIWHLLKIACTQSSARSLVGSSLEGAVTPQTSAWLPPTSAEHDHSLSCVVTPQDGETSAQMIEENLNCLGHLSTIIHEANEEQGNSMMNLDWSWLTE
Sequence of EGFR (P00533 25-1210): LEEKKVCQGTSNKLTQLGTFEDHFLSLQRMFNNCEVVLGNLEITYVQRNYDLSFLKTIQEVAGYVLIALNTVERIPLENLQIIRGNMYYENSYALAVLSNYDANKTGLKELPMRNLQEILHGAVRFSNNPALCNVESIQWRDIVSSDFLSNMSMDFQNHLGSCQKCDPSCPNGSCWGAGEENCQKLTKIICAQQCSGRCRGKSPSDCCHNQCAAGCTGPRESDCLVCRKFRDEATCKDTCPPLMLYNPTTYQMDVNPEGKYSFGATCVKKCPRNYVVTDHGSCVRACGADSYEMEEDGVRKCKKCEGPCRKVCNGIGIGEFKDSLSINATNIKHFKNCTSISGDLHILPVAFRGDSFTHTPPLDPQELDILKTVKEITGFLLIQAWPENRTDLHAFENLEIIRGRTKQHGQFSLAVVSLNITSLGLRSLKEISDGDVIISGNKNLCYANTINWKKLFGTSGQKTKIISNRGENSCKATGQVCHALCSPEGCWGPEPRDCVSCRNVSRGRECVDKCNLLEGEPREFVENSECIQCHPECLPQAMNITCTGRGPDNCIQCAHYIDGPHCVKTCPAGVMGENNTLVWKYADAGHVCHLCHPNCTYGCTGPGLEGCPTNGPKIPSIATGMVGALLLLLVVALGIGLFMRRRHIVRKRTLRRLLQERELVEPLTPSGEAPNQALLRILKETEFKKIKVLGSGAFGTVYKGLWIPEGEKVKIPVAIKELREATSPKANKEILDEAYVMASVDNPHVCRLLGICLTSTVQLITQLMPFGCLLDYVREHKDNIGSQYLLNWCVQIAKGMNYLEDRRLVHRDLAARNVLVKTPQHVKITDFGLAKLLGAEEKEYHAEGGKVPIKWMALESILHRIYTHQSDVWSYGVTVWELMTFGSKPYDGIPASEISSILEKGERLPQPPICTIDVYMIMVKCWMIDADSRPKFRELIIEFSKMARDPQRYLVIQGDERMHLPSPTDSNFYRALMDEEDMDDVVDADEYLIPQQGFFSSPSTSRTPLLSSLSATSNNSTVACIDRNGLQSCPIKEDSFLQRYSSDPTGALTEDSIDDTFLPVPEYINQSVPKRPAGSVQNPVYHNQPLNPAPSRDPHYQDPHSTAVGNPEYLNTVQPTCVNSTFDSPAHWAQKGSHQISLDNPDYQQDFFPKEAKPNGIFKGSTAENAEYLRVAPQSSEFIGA
Sequence of JNK1 (P45983 whole entry): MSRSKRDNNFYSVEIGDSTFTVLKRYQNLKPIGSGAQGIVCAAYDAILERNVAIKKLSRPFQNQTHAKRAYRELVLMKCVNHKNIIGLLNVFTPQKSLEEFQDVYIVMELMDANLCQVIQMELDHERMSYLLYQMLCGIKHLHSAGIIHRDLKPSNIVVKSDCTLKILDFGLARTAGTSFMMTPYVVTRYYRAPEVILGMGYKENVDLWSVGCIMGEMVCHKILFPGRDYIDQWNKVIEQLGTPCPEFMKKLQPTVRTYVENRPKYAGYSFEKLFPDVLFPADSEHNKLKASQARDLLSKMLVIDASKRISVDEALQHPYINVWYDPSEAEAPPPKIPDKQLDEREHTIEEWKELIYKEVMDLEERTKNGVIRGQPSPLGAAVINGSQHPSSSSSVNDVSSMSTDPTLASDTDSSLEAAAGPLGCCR
Sequence of CDK7 (P50613 whole entry): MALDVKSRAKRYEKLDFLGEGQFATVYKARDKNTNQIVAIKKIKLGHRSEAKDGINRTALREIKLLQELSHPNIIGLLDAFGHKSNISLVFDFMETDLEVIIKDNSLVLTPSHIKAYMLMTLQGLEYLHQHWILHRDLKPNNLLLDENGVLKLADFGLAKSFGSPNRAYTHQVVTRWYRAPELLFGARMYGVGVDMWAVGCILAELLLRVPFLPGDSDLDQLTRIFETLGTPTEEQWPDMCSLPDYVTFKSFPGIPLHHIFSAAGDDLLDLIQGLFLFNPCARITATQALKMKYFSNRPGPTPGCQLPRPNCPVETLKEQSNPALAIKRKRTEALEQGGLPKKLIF
Sequence of FGFR2 (P21802 22-821): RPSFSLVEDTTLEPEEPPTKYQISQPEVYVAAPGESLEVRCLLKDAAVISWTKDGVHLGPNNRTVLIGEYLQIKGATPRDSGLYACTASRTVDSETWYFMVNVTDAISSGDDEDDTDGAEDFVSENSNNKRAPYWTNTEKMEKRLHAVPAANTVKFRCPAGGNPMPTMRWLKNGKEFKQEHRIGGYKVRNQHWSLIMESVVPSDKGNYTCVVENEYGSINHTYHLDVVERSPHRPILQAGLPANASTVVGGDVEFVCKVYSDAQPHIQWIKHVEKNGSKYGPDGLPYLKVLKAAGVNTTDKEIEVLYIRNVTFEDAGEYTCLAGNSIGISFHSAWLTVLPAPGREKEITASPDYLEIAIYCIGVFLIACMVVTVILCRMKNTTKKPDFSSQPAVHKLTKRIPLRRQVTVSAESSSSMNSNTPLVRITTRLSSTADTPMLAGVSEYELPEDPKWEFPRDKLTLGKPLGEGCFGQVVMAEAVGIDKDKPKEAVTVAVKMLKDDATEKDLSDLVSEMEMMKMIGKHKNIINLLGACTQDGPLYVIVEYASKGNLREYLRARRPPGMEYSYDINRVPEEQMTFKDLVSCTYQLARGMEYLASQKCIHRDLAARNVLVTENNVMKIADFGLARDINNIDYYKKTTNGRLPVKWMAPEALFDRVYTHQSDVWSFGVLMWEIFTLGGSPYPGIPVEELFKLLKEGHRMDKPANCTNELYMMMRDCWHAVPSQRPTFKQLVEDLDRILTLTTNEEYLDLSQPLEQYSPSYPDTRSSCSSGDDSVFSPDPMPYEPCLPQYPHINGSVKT

C=C1CCCCCCCCCC(CO)C1=O (stereo not shown) [EP009, 2-(Hydroxymethyl)-12-methylenecyclododecanone]
Kinase Activity (% of Control) [1]: 100 % of Control
Kinase Activity (% of Control) [2]: 100 % of Control
inhibition of Polo-like kinase 4 (PLK4) [3]: 47 % inhibition
Kinase Activity (% of Control) ([3]; PLK4): 53 % of Control
Kinase Activity (% of Control) [4]: 99 % of Control
Kinase Activity (% of Control) [5]: 87 % of Control
constitutive phosphorylation of p70 S6 kinase [6]: decreased in a dose-dependent manner
Kinase Activity (% of Control) [7]: 100 % of Control
Kinase Activity (% of Control) [8]: 100 % of Control
Kinase Activity (% of Control) [9]: 99 % of Control
